Literature values in US11697638B2, “5-methoxy-N,N-dimethyltryptamine crystalline forms” (Small Pharma Ltd, priority 2021, dated 2023).
Like-named read-outs stand apart in the source and are kept apart here.

Settings: self-report, uncontrolled setting

## COc1ccc2[nH]cc(CCN(C)C)c2c1 [5-MeO-DMT, 5-methoxy-N,N-dimethyltryptamine]
anxiety
  participants with psychiatric diagnoses indicating that their symptoms improved following 5-MeO-DMT use: 69%
depression
  participants with psychiatric diagnoses indicating that their symptoms improved following 5-MeO-DMT use: 77%
post-traumatic stress disorder
  participants with psychiatric diagnoses indicating that their symptoms improved following 5-MeO-DMT use: 79%
